The assay deals with BCKDHA and mTOR pathway members in mdx muscle. Description: Protein analysis of BCKDHA and mTOR pathway members in mdx muscle. Format: in vivo, mouse. As to conditions: weekly prednisone. The method, then: Animal handling and steroid regimens. Mice were housed in a pathogen-free dedicated vivarium in accordance with Institutional Animal Care and Use Committee (IACUC) guidelines. Euthanasia was performed through carbon dioxide inhalation followed by cervical dislocation and heart removal. All methods using living animals in this study were performed in ethical accordance with the American Veterinary Medical Association (AVMA) and under protocols fully approved by both the Institutional Animal Care and Use Committee (IACUC) at Northwestern University Feinberg School of Medicine (protocol number ISO00000761). Consistent with the ethical approvals, all efforts were made to minimize suffering. Mice were fed ad libitum with Mouse Breeder Sterilizable Diet (#7904; Harlan Teklad, Indianapolis, Ind.) and maintained on a 12-hour light/dark cycle. mdx mice from the DBA/2J background were obtained from the Jackson Laboratory (Bar Harbor, Me.; stock #013141) and interbred. Male mice were used for reported experiments. Age at start was approximately 6 months for short-term experiments, approximately 6 weeks for long-term experiments. Dysferlin-null (Dysf-null) mice from the 129T2/SvEmsJ background were previously characterized (Demonbreun et al., 2011; Demonbreun et al., 2014). Age at start was approximately 9 months for long-term experiments. For experiments with Dysf-null and wildtype mice, both females and males (approximately 1:1 ratio) were randomized in treatment groups. […] Dosing was based on weekly weight measurements (1 mg/kg body weight, (Sali et al., 2012)) in 100 μl total PBS volume per dose. Mice were injected daily via intraperitoneal injection at 7 AM. On injection days, stock solutions stored at −20° C. were diluted into sterile Eppendorf tubes containing sterile phosphate buffered saline (PBS) (#14190; Thermo Fisher, Waltham, Mass.). Puromycin (cat #A1113803, Thermo Scientific, Waltham, Mass.) was administered i.p. as 0.040 μmol/body g, and tissues were snap-frozen 30 minutes after injection. Sterile BD Micro-Fine IV Insulin Syringes (#14-829-1A; Fisher Scientific, Waltham, Mass.) were used to inject the intraperitoneal cavity of non-sedated animals. All animal analyses both during treatment and at endpoint were conducted blinded to treatment groups.
Protein analysis. Protein lysates from approximately 50 mg muscle tissue were obtained with homogenization at the TissueLyser II (cat #85300; Qiagen, Hilden, Germany) for two rounds of 2 minutes each with 2 minutes pause in between, using sample plates chilled at −20° C. o/n and one stainless 5 mm bead per sample (cat #69989; Qiagen, Hilden, Germany). […]

[1] abbreviates: mdx muscle, 12-week-long treatment.

`C[C@]12C=CC(=O)C=C1CC[C@@H]1[C@@H]2C(=O)C[C@@]2(C)[C@H]1CC[C@]2(O)C(=O)CO` [prednisone, Prednisone]: under setting [1], the “levels of mTOR-bound RagC and phosphorylation of S6K and 4EBP1” value is reported as “increased”; the “protein translation and muscle mass (puromycin incorporation and myofiber size)” value was “increased”. Moreover, for the setting “quadriceps muscle of mdx mice”, the “phosphorylation of BCKDHA” value is on record as “reduced” and the “total levels of branched chain keto acid dehydrogenase (BCKDHA)” value is listed as “increased”.
